Assay results: paper PMC8480901 (PLoS ONE, 2021)
“And” between values parts separate entries of the source, which are not always exact repeats. Identical values can stand only once.

Experiments:
[1] = tested on: IL-8–activated human neutrophils; assay: Chemotaxis of IL-8–activated human neutrophils (transwell, CellTiter Glo); type: cell-based; details: for Neutrophilic chemotaxis, RLU, Mean / Neutrophilic chemotaxis: % reduction / Neutrophilic chemotaxis, RLU, single replicates: IL-8; for Neutrophilic chemotaxis, RLU, single replicates: listed as Ref
Excerpt: Buffy coat (blood sample fraction comprising white blood cells and platelets) from whole blood was obtained from a healthy adult volunteer at the Croatian Institute of Transfusion Medicine (CITM; Zagreb, Croatia). The CITM ethics committee approved the blood collection process, and the volunteer provided written informed consent prior to blood collection. Neutrophils were isolated from the buffy coat, an aliquot of which was used for cell counting via hematologic analyzer (X500i; Sysmex). […] The diluted buffy coat was drawn into sterile 50-mL syringes and incubated for 30 minutes at RT. Following incubation, the upper layer of leukocyte-rich plasma (35 mL) was decanted into a new sterile 50-mL conical centrifuge tube, carefully layered onto 15 mL of Lymphoprep (Axis-Shield Diagnostics, Ltd., Dundee, UK) and centrifuged at 400×g (brake turned off) for 35 minutes at RT. The supernatant and mononuclear ring were discarded, and the pellet was resuspended in 10 mL of cold sterile MilliQ water. […] Resuspended neutrophils were counted via Sysmex X500i hematologic analyzer.
All test compounds were reconstituted in DMSO (Sigma-Aldrich Chemie GmbH) to 100-mM stock concentrations, taking into consideration and correcting for salt and purity. A 30-mM stock solution of reference compound Sch527123 (MedChemExpress, Monmouth Junction, NJ, USA) was diluted to 10 mM with DMSO.
DMSO was used as vehicle. […] The reference compound was tested at concentrations of 0.003, 0.01, 0.03, 0.1, 0.3, 1, 3, and 10 μM. All compounds were tested in triplicate, and the final DMSO concentration was 0.1% per well.
Test and reference compound working solutions were then added (20 μL/well) for a 10-fold dilution to final testing concentrations. Compounds and cells were mixed by gentle pipetting, and the plate was pre-incubated for 30 minutes at RT with gentle mixing by pipetting.
Negative control wells received 180 μL of migration medium alone. To all wells, 20 μL of compound working solutions or DMSO vehicle was added. Once pre-incubation of cells with compounds was complete, the transwell inserts were carefully placed on the receiver plate, with caution to avoid air bubble formation, which could prevent cell migration. To the upper wells, 75 μL of cell suspension (375,000 cells/well) was added, taking care not to tear the membrane with pipette tips.
After incubation, the number of cells that migrated to the lower wells was quantified by removing the Transwell insert and adding 200 μL of CellTiter Glo reagent (CellTiter-Glo Luminescent Cell Viability Assay, Promega, Madison, WI, USA) to each lower well to quantify the amount of adenosine triphosphate (ATP) present, signaling the presence of metabolically active cells. The plate was incubated for 10 minutes in the dark at RT, followed by transferring 150 μL of solution into wells of a white 96-well plate (Lumitrac 200; Greiner Bio-One International GmbH, Kremsmunster, Austria).
For the chemotaxis and cytotoxicity evaluations, average relative light unit values were calculated from all untreated vehicle samples and, for each sample, percentage of vehicle value was calculated. The tested compound was considered cytotoxic if reduction from untreated vehicle was ≥20%.

[2] = tested on: LPS-induced acute lung injury; details: cited from earlier work
[3] = tested on: murine RAW 264.7 macrophages; details: cited from earlier work
[4] = tested on: methicillin-resistant Staphylococcus aureus wound infection; set-up: method as in PMID 32079232; details: MRSA wound infection mouse model; cited from earlier work

## CC[C@@H](Nc1c(Nc2cccc(C(=O)N(C)C)c2O)c(=O)c1=O)c1ccc(C)o1 [Sch527123]
[1]; 0.003 to 10 μM
  IL-8–induced chemotaxis of human neutrophils: dose-dependent inhibition
[1]; 0.003 µM
  Neutrophilic chemotaxis, RLU, Mean: 136013 RLU
  Neutrophilic chemotaxis: % reduction: -2.55%
  Neutrophilic chemotaxis, RLU, single replicates: 126680 RLU and 141280 RLU and 140080 RLU
[1]; 0.01 µM
  Neutrophilic chemotaxis, RLU, Mean: 145907 RLU
  Neutrophilic chemotaxis: % reduction: -11%
  Neutrophilic chemotaxis, RLU, single replicates: 164560 RLU and 147560 RLU and 125600 RLU
[1]; 0.03 µM
  Neutrophilic chemotaxis, RLU, Mean: 131720 RLU
  Neutrophilic chemotaxis: % reduction: 1.09%
  Neutrophilic chemotaxis, RLU, single replicates: 131800 RLU and 131640 RLU
[1]; 0.1 µM
  Neutrophilic chemotaxis, RLU, Mean: 87493 RLU
  Neutrophilic chemotaxis: % reduction: 39%
  Neutrophilic chemotaxis, RLU, single replicates: 83280 RLU and 83800 RLU and 95400 RLU
[1]; 0.3 µM
  Neutrophilic chemotaxis, RLU, Mean: 34307 RLU
  Neutrophilic chemotaxis: % reduction: 84%
  Neutrophilic chemotaxis, RLU, single replicates: 34560 RLU and 36480 RLU and 31880 RLU
[1]; 1 µM
  Neutrophilic chemotaxis, RLU, Mean: 20080 RLU
  Neutrophilic chemotaxis: % reduction: 96%
  Neutrophilic chemotaxis, RLU, single replicates: 21040 RLU and 22120 RLU and 17080 RLU
[1]; 3 µM
  Neutrophilic chemotaxis, RLU, Mean: 18067 RLU
  Neutrophilic chemotaxis: % reduction: 97%
  Neutrophilic chemotaxis, RLU, single replicates: 19800 RLU and 19160 RLU and 15240 RLU
[1]; 10 µM
  Neutrophilic chemotaxis, RLU, Mean: 19573 RLU
  Neutrophilic chemotaxis: % reduction: 96%
  Neutrophilic chemotaxis, RLU, single replicates: 21800 RLU and 20760 RLU and 16160 RLU

## C=C[C@]1(C)C[C@@H](OC(=O)CSC(C)(C)CNC(=O)[C@H](N)C(C)C)[C@]2(C)[C@H](C)CC[C@]3(CCC(=O)[C@H]32)[C@@H](C)[C@@H]1O [valnemulin]
[2]; pretreated mice vs no-treatment control group
  LPS-induced pulmonary edema, accumulation of inflammatory cells in BALF, and increased inflammatory cytokines (eg, TNF-α and IL-6): significantly attenuated
[3]
  LPS-induced production of inflammatory mediators, including nitric oxide, prostaglandin E2, TNF-α, and IL-6: significantly inhibited

## C=C[C@]1(C)C[C@@H](OC(=O)CSc2ccccc2N)[C@]2(C)[C@H](C)CC[C@]3(CCC(=O)[C@H]32)[C@@H](C)[C@@H]1O [amphenmulin, 22-(2-amino-phenylsulfanyl)-22-deoxypleuromutilin]
[4]
  TNF-α, IL-6, and CCL-2 serum levels: significantly reduced

## CC[C@H]1OC(=O)[C@H](C)[C@@H](O[C@H]2C[C@@](C)(OC)[C@@H](O)[C@H](C)O2)[C@H](C)[C@@H](O[C@@H]2O[C@H](C)C[C@H](N(C)C)[C@H]2O)[C@](C)(OC)C[C@@H](C)C(=O)[C@H](C)[C@@H](O)[C@]1(C)O [clarithromycin]
[2]; pretreatment in LPS-induced acute lung injury models
  neutrophil recruitment: significantly reduced
